Source: EP0938474B1, “CYCLOPROPYLINDOLE COMPOUNDS AND THEIR USE AS PRODRUGS” (AUCKLAND UNISERVICES LIMITED, priority 1996, dated 1998)

Experiments:
SC3.2 = assay: Cytotoxicity in cells transfected with bacterial nitroreductase (NR+); format: cell-based; settings: Homo sapiens, SK-OV-3; SC3.2 (NR+ transfected counterpart of SKOV3); IC50, unit inferred; read-out: Human ovarian lines NR+
Description: (§1) Compounds of the invention were further tested against human cell lines (NR+ in Table 3) transfected with a gene encoding a bacterial nitroreductase (NR) enzyme to test for activation of compounds of the invention with NR. Untransfected control cells (NR- in Table 3) were used as controls. The cells used were the human colon NR-(wild-type) line WIDR and its transfected NR+ counterpart WC14.10; and the human ovarian NR- (wild-type) line SKOV3 together with its NR+ (transfected) counterpart SC3.2. The results are shown in Table 3, which also indicates the ratios of IC50s. These are intra-experiment values, and may differ slightly from those calculated from the given NR- and NR+ values.

WC14.10 = assay: as above; format: cell-based; settings: Homo sapiens; WC14.10 (NR+ transfected counterpart of WIDR); IC50, unit inferred; read-out: Human colon lines NR+
Description: as §1

[1] = test system: human ovarian NR- (wild-type) line SKOV3; assay: Cytotoxicity in untransfected control cells (NR-), nitroreductase activation test; format: cell-based; settings: SK-OV-3, IC50, unit inferred, read-out: Human ovarian lines NR-
Description: as §1

[2] = test system: human colon NR-(wild-type) line WIDR; assay: as above; format: cell-based; settings: IC50, unit inferred, read-out: Human colon lines NR-
Description: as §1

[3] = background statement, test system not given; cited from earlier work

With CCCC(=O)Nc1cc(/C=C/C(=O)N2CC(CCl)c3c2cc([N+](=O)[O-])c2ccccc32)n(C)c1 (stereo not shown) [14i, 3-[(E)-4-(butyrylamino)-1-methyl-2-pyrroleacryloyl]-1-(chloromethyl)-5-nitro-1,2-dihydro-3H-benz [e] indole] the IC50 (SC3.2) was 390 nM, the IC50 (WC14.10) was 600 nM and the IC50 [1] was 4300 nM. It also gave an IC50 [2] of 2200 nM.
With COc1cccc(/C=C/C(=O)N2CC(CCl)c3c2cc([N+](=O)[O-])c2ccccc32)c1 (stereo not shown) [14l, 1-(chloromethyl)-3-[(E)-3-methoxycinnamoyl]-5-nitro-1,2-dihydro-3H-benz[e]iadole] the IC50 (SC3.2) was 40 nM, the IC50 (WC14.10) was 80 nM and the IC50 [1] was 130 nM. For the same molecule, the IC50 [2] was 140 nM.
COc1cc2cc(C(=O)N3CC(COS(C)(=O)=O)c4c3cc([N+](=O)[O-])c3ccccc43)[nH]c2c(OC)c1OC (stereo not shown) [14o, 1-[(methanesulfonyloxy)methyl]-5-nitro-3-[(5,6,7-trimethoxyindol-2-yl)carbonyl]-1,2-dihydro-3H-benz[e]indole] gave an IC50 (SC3.2) of 50 nM, an IC50 (WC14.10) of 60 nM and an IC50 [1] of 410 nM. The IC50 [2] was 410 nM.
In the case of COc1cc2cc(C(=O)N3CC(CCl)c4c3cc(NC(=O)OCc3ccc([N+](=O)[O-])cc3)c3ccccc43)[nH]c2c(OC)c1OC (stereo not shown) [15r, 1-(chloromethyl)-5-[(4-nitrobenzyloxycarbonyl)amino]-3-[(5,6,7-trimethoxyindol-2-yl)carbonyl]-1,2 - dihydro-3H-benz[e] indole], the IC50 (SC3.2) is reported as 5.4 nM, the IC50 (WC14.10) is reported as 12 nM and the IC50 [1] is reported as 62 nM. For the same molecule, the IC50 [2] was 390 nM.
In the case of COC(=O)c1cc2c3c(cc(NC(=O)OCc4ccc([N+](=O)[O-])cc4)c2[nH]1)N(C(=O)c1cc2cc(OC)c(OC)c(OC)c2[nH]1)CC3CCl (stereo not shown) [32d, methyl 1-(chloromethyl) -5-[(4-nitrobenzyloxycarbonyl) -amino] -3-[(5,6,7-trimethoxyindol-2-yl)carbonyl]-1,2-dihydro-3H-pyrrolo[3,2-e]indole-7-carboxylate], the IC50 (SC3.2) is reported as 270 nM, the IC50 (WC14.10) is reported as 260 nM and the IC50 [1] is reported as 1100 nM. It also gave an IC50 [2] of 490 nM.
For COc1c(O)c2c(c3cc(C(=O)N4CCc5c4c(O)c(OC)c4[nH]c(C(=O)N6CC7CC78C6=CC(=O)c6[nH]cc(C)c68)cc54)[nH]c13)CCN2C(N)=O (stereo not shown) [CC-1065], the “IC50's” value [3] is given as “low pM range”.
For COC(=O)c1cc2c3c(cc([N+](=O)[O-])c2[nH]1)N(C(=O)c1cc2cc(OC)c(OC)c(OC)c2[nH]1)CC3CCl (stereo not shown) [compound 31, methyl 1-(chloromethyl)-5-nitro-3-[(5,6,7-trimethoxyindol-2-yl)carbonyl]-1,2-dihydro-3H-pyrrolo[3,2-e]indole-7-carboxylate], the IC50 (SC3.2) was 5 nM, the IC50 (WC14.10) was 10 nM and the IC50 [1] was 60 nM. The IC50 [2] was 400 nM.
